Common to all, as to set-up: scale not given: the % may be the effect or the level left
In assay [1] the target is T1, Serine/threonine-protein kinase BRSK1 (Homo sapiens) (UniProt Q8TDC3).
T1 sequence (whole entry): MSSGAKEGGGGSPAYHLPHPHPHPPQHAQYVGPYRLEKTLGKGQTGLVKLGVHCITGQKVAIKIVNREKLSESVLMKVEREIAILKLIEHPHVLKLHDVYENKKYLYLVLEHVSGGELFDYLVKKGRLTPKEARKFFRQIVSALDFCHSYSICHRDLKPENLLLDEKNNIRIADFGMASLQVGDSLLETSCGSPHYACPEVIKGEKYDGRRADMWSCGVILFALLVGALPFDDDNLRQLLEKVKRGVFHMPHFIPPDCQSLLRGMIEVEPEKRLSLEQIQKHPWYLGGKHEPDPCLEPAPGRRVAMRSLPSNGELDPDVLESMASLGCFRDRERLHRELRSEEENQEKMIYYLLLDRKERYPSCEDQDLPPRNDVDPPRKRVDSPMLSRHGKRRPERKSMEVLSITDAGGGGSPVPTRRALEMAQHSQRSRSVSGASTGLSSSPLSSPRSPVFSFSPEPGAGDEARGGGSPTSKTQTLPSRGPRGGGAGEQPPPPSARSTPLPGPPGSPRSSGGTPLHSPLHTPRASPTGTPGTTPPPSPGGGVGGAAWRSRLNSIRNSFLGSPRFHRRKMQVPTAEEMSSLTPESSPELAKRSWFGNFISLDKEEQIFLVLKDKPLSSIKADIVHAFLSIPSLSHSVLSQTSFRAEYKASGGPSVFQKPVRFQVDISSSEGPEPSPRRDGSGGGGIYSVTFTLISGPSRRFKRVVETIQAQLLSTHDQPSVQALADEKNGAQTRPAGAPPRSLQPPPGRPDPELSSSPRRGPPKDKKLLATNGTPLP
Description: Inhibition of human BRSK1 assessed as enzyme activity at 1 uM using KKKVSRSGLYRSPSMPENLNRPR as substrate preincubated for 20 mins followed by [gamma-33P]-ATP addition and measured after 120 mins by radiometric Hot-SpotSM Kinase assay relative to control.

Assay [2] addresses Fibroblast growth factor receptor 4 (Homo sapiens) (UniProt P22455). Description: Inhibition of human FGFR4 assessed as enzyme activity at 1 uM using poly[Glu:Tyr] (4:1) as substrate preincubated for 20 mins followed by [gamma-33P]-ATP addition and measured after 120 mins by radiometric Hot-SpotSM Kinase assay relative to control.
Assay [3] deals with T2, Mitogen-activated protein kinase kinase kinase 2 (Homo sapiens) (UniProt Q9Y2U5).
T2 sequence (whole entry): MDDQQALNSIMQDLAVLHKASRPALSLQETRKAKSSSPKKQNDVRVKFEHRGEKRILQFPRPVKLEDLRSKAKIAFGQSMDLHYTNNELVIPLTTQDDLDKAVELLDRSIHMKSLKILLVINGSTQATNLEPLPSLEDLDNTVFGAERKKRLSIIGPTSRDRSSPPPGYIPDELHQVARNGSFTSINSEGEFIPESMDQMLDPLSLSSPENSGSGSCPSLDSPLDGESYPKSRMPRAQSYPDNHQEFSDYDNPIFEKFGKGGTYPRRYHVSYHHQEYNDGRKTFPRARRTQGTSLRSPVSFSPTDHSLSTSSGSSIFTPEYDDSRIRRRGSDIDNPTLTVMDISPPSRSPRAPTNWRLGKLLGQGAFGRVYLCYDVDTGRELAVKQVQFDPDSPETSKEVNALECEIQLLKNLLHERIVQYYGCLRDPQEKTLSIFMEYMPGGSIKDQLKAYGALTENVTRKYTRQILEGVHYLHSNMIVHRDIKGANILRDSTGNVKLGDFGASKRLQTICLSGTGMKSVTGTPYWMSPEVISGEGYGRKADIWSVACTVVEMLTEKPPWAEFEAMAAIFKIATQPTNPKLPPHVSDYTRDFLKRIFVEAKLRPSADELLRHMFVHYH
Description: Inhibition of human MEKK2 assessed as enzyme activity at 1 uM using myelin basic protein as substrate preincubated for 20 mins followed by [gamma-33P]-ATP addition and measured after 120 mins by radiometric Hot-SpotSM Kinase assay relative to control.

Assay [4] has as its target Mitogen-activated protein kinase kinase kinase 10 (Homo sapiens) (UniProt Q02779). The experiment in a line: Inhibition of human MLK2 assessed as enzyme activity at 1 uM using myelin basic protein as substrate preincubated for 20 mins followed by [gamma-33P]-ATP addition and measured after 120 mins by radiometric Hot-SpotSM Kinase assay relative to control.
For assay [5], the target named is Tau-tubulin kinase 1 (Homo sapiens) (UniProt Q5TCY1). The experiment in a line: Inhibition of human TTBK1 assessed as enzyme activity at 1 uM using myelin basic protein as substrate preincubated for 20 mins followed by [gamma-33P]-ATP addition and measured after 120 mins by radiometric Hot-SpotSM Kinase assay relative to control.
Tau-tubulin kinase 1 (Homo sapiens), sequence (Q5TCY1 whole entry): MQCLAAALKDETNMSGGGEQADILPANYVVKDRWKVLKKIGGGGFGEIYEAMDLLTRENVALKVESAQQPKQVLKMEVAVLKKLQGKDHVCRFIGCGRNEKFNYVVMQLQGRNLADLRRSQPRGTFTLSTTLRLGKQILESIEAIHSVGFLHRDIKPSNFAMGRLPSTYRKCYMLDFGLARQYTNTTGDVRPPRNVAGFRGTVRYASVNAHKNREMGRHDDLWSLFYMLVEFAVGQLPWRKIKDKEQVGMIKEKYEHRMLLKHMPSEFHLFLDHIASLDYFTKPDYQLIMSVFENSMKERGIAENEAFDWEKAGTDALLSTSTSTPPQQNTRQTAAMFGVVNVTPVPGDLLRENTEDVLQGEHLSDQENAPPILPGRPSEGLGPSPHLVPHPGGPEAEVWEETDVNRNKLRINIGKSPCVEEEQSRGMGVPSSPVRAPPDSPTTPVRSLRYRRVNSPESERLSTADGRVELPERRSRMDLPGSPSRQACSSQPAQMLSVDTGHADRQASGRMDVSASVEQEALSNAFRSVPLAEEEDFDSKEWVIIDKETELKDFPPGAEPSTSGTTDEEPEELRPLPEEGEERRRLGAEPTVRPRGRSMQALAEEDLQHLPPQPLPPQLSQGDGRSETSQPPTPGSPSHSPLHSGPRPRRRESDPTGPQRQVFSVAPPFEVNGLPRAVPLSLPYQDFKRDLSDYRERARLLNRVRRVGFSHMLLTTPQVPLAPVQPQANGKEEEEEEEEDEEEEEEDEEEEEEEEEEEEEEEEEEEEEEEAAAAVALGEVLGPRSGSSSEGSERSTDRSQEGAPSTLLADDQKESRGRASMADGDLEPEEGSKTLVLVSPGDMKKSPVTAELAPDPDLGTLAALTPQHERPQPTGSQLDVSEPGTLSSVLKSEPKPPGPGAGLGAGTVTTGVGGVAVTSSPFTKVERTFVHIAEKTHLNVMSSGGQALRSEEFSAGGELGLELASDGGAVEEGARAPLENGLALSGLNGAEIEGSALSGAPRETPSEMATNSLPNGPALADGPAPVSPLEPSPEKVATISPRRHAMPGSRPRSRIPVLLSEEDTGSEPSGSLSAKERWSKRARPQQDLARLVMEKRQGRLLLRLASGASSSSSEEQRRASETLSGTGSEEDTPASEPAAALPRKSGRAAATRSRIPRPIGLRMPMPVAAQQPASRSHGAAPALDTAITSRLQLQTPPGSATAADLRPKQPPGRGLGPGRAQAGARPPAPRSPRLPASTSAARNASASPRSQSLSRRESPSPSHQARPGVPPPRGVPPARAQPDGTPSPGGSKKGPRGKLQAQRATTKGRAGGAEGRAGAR

Fibroblast growth factor receptor 4 (Homo sapiens), sequence (P22455 22-802 limits assumed): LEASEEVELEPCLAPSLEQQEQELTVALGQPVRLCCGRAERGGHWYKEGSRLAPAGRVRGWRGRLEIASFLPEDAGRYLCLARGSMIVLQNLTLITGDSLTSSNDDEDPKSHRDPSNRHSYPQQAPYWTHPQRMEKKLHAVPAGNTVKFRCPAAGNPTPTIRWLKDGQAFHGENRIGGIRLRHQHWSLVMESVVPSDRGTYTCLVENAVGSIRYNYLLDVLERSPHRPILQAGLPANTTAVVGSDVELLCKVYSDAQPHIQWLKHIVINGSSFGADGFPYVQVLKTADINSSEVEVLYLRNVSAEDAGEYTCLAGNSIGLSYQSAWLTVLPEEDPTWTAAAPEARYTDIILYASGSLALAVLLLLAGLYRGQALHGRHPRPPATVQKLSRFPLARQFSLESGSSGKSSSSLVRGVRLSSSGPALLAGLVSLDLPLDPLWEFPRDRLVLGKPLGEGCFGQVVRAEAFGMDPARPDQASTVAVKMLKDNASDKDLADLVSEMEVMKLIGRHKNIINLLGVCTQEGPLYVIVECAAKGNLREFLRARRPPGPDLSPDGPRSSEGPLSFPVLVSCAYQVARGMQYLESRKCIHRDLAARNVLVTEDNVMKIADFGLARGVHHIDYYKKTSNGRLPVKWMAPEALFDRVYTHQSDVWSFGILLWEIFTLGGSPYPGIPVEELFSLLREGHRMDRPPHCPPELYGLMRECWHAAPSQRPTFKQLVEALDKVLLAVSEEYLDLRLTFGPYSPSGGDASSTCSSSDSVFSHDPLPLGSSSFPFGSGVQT
Mitogen-activated protein kinase kinase kinase 10 (Homo sapiens), sequence (Q02779 whole entry, looked up): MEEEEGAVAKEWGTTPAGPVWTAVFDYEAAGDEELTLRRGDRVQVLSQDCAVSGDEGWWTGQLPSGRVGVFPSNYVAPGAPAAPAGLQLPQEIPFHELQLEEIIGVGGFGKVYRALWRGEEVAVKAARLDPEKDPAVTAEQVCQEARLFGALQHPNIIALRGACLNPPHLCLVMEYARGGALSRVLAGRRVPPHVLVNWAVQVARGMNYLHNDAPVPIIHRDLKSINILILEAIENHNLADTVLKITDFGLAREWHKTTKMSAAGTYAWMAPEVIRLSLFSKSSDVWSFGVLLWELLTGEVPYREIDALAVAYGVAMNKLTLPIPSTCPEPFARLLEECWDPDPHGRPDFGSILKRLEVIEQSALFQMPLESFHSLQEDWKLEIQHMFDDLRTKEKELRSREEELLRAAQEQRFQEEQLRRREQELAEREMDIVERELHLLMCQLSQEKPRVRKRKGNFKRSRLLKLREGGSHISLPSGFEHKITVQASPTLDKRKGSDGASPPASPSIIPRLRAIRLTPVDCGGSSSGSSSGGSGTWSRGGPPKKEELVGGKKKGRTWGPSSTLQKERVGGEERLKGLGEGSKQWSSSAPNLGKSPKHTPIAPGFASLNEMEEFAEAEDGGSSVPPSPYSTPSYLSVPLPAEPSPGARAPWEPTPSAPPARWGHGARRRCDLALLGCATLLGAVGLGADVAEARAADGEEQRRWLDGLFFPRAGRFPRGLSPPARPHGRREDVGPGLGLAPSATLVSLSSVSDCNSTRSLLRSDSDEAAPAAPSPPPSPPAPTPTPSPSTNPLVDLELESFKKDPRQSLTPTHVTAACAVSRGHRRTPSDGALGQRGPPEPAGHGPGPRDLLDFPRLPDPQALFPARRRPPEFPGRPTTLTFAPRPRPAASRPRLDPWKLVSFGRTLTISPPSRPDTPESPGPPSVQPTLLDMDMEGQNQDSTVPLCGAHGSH

As to `C[C@H](Nc1ncnc2nc[nH]c12)c1cc2cccc(Cl)c2c(=O)n1-c1ccccc1`, the Activity worked out at 92.5% in assay [1]; 94.5% in assay [2]; 94.9% in assay [3]; 103% in assay [4]; 97.8% in assay [5].
As to `CC[C@H](Nc1ncnc2[nH]cnc12)c1nc2cccc(F)c2c(=O)n1-c1ccccc1`, the Activity came to 89.1% in assay [1]; 97.3% in assay [2]; 101% in assay [3]; 112% in assay [4]; 95.8% in assay [5].
Consider `CC(C)Oc1ccc(-c2nn([C@@H](C)c3oc4ccc(F)cc4c(=O)c3-c3cccc(F)c3)c3ncnc(N)c23)cc1F` [UMBRALISIB], for which the Activity was determined as 87.9% in assay [1]; 93.2% in assay [2]; 108% in assay [3]; 108% in assay [4]; 103% in assay [5].
